We go through one compound from patent publication US20040023990A1, “Use of pyrazolo[4,3-d]pyrimidines” (priority 2000, published 2004).

A word on the melting point: it is the temperature, or range, at which the solid turns liquid. `CCCc1nn(C)c2c(NCc3ccc(OC)c(Cl)c3)nc(CCC(=O)O)nc12` [Example 2, 3-[7-(3-chloro4-methoxybenzylamino)-1-methyl-3-propyl-1H-pyrazolo-[4,3-d]pyrimidin-5-yl]propionic acid] showed a melting point of 178 °C.
